Data published in patent EP0167945A2, “Phenylethylaminopropiophenone derivatives, process for their preparation et medicines containing them” (Troponwerke GmbH & Co. KG, priority 1984, dated 1986).
Where a name gives a salt, the structure may show the parent alone.

Assays:
[1] = tested on: durch Tetrabenazin induzierte Ptosis; experiment: Tetrabenazine antagonism (antagonism of tetrabenazine-induced ptosis); format: in vivo, Mäusen; conditions: Mus musculus, ip; dose at which ptosis induced by 20 mg/kg i.p. Tetrabenazin is reduced by 50 %; mice; read-out: DE50 (the source's name)
Description: (§1) Die Verbindungen wurden auf anxiolytische, nootrope und antidepressive Eigenschaften geprüft. Als Leittest für die anxiolytische Wirkung diente die Antagonisierung der Fußschock-induzierten Aggressivität nach Tedeschi^1; für die antidepressive Wirkung der Antitetrabenazin^2- und Amphetaminpotenzierungstest . Beispielsweise wurden für die antidepressiven Wirkungen der erfindungsgemäßen Substanzen folgende Werte erhalten:
1) Tetrabenazin Antagonismus
Antidepressiv wirksame Substanzen antagonisieren die durch Tetrabenazin induzierte Ptosis bei Mäusen. Der DE50-Wert gibt diejenige Dosis an, bei der die durch 20 mg/kg i.p. Tetrabenazin induzierte Ptosis zu 50 % reduziert ist. Dazu seien Beispiele genannt:
• 1 Tedeschi et al., J. Pharmacol. Exp. Ther. 129, 28-34, 1959 • 2 J. L. Howard et al., in: Antidepressants: Neurochemical,.Behavioral and Clinical Perspectives, herausgegeben von S. J. Enna et al., Raven Press N. Y., S. 107-120, 1981.

[2] = tested on: Amphetamininduzierte stereotype Verhalten; experiment: Amphetamine potentiation (potentiation of amphetamine-induced stereotyped behaviour); format: in vivo, Ratte; conditions: ip; dose at which behaviour induced by 2 mg/kg DL-Amphetaminsulfat i. v. is enhanced by 50 %; rat; read-out: DE50 (the source's name)
Description: as §1
2) Amphetamin-Potenzierung
Antidepressiv wirksame Substanzen potenzieren das Amphetamininduzierte stereotype Verhalten bei der Ratte.
Der angegebene DE50-Wert ist die Dosis, bei der das Amphetamininduzierte Verhalten nach Gabe von 2 mg/kg DL-Amphetaminsulfat i. v. um 50 % verstärkt ist.

Row | Structure (SMILES) | ED50 [1] | ED50 [2]
1 | CC(NC(C)(C)Cc1ccccc1)C(=O)c1cccc(Cl)c1 (stereo not shown) [Beispiel 1, 1-(3-Chlorphenyl)-2-(1,1-dimethyl-2-phenylethylamino)propan-1-onhydrochlorid] | 1 mg/kg | 13 mg/kg
2 | CC(Cc1ccccc1)NC(C)C(=O)c1cccc(Cl)c1 (stereo not shown) [Beispiel 2, 1-(3-Chlorphenyl)-2-(1-methyl-2-phenyl-ethylamino) propan-1-onhydrochlorid] | 14 mg/kg | 6 mg/kg
3 | CC(NC(C)(C)Cc1ccc(Cl)cc1)C(=O)c1cccc(Cl)c1 (stereo not shown) [Beispiel 3, 1-(3-Chlorphenyl)-2-(1,1-dimethyl-2-(4-chlor-phenyl)ethylamino)propan-1-onhydrochlorid] | 12 mg/kg | 9 mg/kg
4 | CC(NC(C)(C)Cc1ccccc1)C(=O)c1ccccc1 (stereo not shown) [Beispiel 4, 1-Phenyl-2-(1,1-dimethyl-2-phenylethylamino)-propan-1-onhydrochlorid] | 19 mg/kg | 
5 | COc1ccc(CC(C)(C)NC(C)C(=O)c2cccc(Cl)c2)cc1 (stereo not shown) [Beispiel 5, 1-(3-Chlorphenyl)-2-(1,1-dimethyl-2-(4-methoxyphenyl)ethylamino)propan-1-onhydrochlorid] | 6.5 mg/kg | 
6 | CC(NC(C)(C)Cc1ccccc1)C(=O)c1cccc(F)c1 (stereo not shown) [Beispiel 6, 1-(3-Fluorphenyl)-2-(1,1-dimethyl-2-phenylethylamino)propan-1-onhydrochlorid] | 6 mg/kg | 
7 | CC(NC(C)(C)Cc1ccccc1)C(=O)c1cccc(C(F)(F)F)c1 (stereo not shown) [Beispiel 7, 1-(3-Trifluormethylphenyl)-2-(1,1-dimethyl-2-phenylethylamino)propan-1-onhydrochlorid] | 10 mg/kg | 
